Patent US5302514A, “Maltooligoside derivative, reagent for determining α-amylase activity containing the same as effective ingredient and a process for determining the α-amylase activity using same” (Kikkoman Corporation, priority 1991, dated 1994)

Columns and labels:
Type in all cases: biochemical
[1] = tested on: coupled enzyme (α-glucosidase derived from yeast and β-glucosidase derived from almond); test: Coupled enzyme resistance test; conditions: 37° C., pH 7.0, FIG. 3 / FIG. 4; for hydrolysis by the coupled enzyme (in words): 3.0 mM substrate solution, α-glucosidase 1053 units/ml, β-glucosidase 15.5 units/ml, 400 nm for 5 minutes; for stability in a measuring system (in words): coupled enzyme system
Experimental: 2-chloro-4-nitrophenyl 5^5 -eno-4^5 -O-mesyl-β-D-maltopentaoside (molecular weight: 1044; referred to hereinafter as substrate of the present invention) obtained in Example 1 was dissolved in a 50 mM phosphate buffer (pH=7.0) containing 40 mM NaCl and 2 mM MgCl2 to a concentration of 3.0 mM.
2-chloro-4-nitrophenyl β-D-maltopentaoside (molecular weight: 984; referred to hereinafter as reference substrate) obtained in the conventional method was dissolved in a 50 mM phosphate buffer (pH=7.0) containing 40 mM NaCl and 2 mM MgCl2 to a concentation of 3.0 mM.
Coupled enzyme solution was prepared by dissolving a commercially available α-glucosidase derived from yeast and a commercially available β-glucosidase derived from almond in a 50 mM phosphate buffer (pH=7.0) containing 40 mM NaCl and 2 mM MgCl2 to a concentration of 1053 units/ml and 15.5 units/ml, respectively. As the commercially available α- and β-glucosidases, those available from Toyobo Co., Ltd. were used.
After 1.0 ml of a coupled enzyme solution was heated at 37° C. for 5 minutes, it was mixed sufficiently with 2.0 ml of the substrate solution of the present invention or the reference substrate solution and heated at 37° C. for 3 minutes. Then, variations of the absorbance at a wavelength of 400 nm were measured for 5 minutes.
The test was carried out in the same manner as in Example 9 except that 2-chloro-4-nitrophenyl 6^5 -azido-6^5 -deoxy-β-D-maltopentaoside (molecular weight: 1009; referred to hereinafter as the substrate of the present invention) obtained in Example 3 was employed as the substrate (a). In FIG. 4, marks Δ show the plottings of the substrate solution (a) and the marks .quadrature. show the plottings of the substrate solution (b).

[2] = target: T1, amylase derived from human pancreatic juice (human P type α-amylase) (Homo sapiens, UniProt P04746); test: Km value, P type α-amylase; conditions: pH 7.0, 37° C., Lineweaver-Burk
T1 sequence (P04746 16-511): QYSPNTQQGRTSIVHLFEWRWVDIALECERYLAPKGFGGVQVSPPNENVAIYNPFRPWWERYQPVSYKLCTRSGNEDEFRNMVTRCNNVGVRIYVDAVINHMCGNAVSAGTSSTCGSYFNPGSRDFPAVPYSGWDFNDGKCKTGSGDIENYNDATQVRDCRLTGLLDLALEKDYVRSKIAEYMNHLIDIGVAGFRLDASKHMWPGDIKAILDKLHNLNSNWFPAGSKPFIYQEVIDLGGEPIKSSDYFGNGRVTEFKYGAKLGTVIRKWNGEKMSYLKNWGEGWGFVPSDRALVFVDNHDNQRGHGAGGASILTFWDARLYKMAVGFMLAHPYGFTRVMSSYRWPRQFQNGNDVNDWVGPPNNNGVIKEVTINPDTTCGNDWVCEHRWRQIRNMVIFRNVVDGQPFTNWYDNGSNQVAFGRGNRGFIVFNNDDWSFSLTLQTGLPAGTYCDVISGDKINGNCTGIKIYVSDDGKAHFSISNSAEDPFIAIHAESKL
Experimental: Km values, hydrolysis rate, water solubility and the patterns of action in the hydrolysis of the present substrates 2-chloro-4-nitrophenyl 5^5 -eno-4^5 -O-mesyl-β-D-maltopentaoside (EMG5CNP) and 2-chloro-4-nitrophenyl 6^5 -azido-6^5 -deoxy- β-D-maltopentaoside (ADG5CNP) obtained in Example were examined in accordance with the following methods.
Substrate solutions were prepared by dissolving in a 50 mM phosphate buffer (pH=7.0) containing 40 mM NaCl and 2 mM MgCl2 a substrate to 0.16, 0.32, 0.48, 0.64, 0.80 and 0.96 mM, respectively.
The Km value of each substrate solution was obtained by measuring the hydrolysis rate of the substrate in accordance with the same procedure as in the measurement of hydrolysis rate described below and roughly calculating the Lineweaver-Burk's reciprocal plot (see "Tanpaku-Kohso no Jikken-hou", ed. Takeichi Horio & Jinpei Yamashita, Nanko-do, 1981).
Each substrate was dissolved in a 50 mM phosphate buffer (pH=7.0) containing 40 mM NaCl and 2 mM MgCl2 to make three substrate solutions in a concentration of 0.8-1.6 times and three substrate solutions in a concentration of 1.6-3.2 times per the roughly calculated Km value in the aforementioned paragraph (ii).
The Km value was calculated in accordance with the same procedure as in the aforementioned paragraph (ii).
(§1) P: amylase derived from human pancreatic juice, […]

[3] = target: T2, amylase derived from human saliva (human S type α-amylase) (Homo sapiens, UniProt P0DUB6); test: Hydrolysis rate, S type α-amylase; conditions: relative to hydrolysis rate of 3 mM G5CNP defined as 10, substrate 7-9 times the Km
T2 sequence (P0DUB6 16-511): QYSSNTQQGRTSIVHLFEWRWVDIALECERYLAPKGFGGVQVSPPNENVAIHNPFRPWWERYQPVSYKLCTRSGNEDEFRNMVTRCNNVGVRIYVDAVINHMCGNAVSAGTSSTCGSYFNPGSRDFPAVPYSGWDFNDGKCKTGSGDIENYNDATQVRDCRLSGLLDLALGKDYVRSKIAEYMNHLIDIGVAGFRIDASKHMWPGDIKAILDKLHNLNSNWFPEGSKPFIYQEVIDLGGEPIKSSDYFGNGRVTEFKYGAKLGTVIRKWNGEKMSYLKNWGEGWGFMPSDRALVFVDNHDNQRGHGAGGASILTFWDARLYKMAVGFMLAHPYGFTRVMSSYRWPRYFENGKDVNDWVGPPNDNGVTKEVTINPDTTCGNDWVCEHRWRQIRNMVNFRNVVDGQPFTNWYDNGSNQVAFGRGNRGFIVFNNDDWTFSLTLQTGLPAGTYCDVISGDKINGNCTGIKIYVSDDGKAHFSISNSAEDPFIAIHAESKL
Experimental: (§2) The coupled enzyme solution was prepared in the same manner as in the step (2) of Example 5.
(§3) Commercially available human P type and S type α-amylase solutions having a concentration of ca. 500 IU/l were prepared in the same manner as in the step (3) of Example 5.
(§4) With 250 μl of the α-amylase solution prepared in (iii) was mixed 1.0 ml of the coupled enzyme. The mixture was heated at 37° C. for 1 minute, and 2.0 ml of the substrate solution was added with stirring to the mixture. The variation of absorbance at 400 nm was measured for 2 minutes after heating the mixture at 37° C. for 2 minutes. The hydrolysis rate of each substrate, namely the variable absorbance per unit time was expressed with the relative values to the hydrolysis rate of 3 mM G5CNP (the reference substrate) which is defined as 10.
S: amylase derived from human saliva.

[4] = target: T1, amylase derived from human pancreatic juice (human P type α-amylase); test: Hydrolysis rate, P type α-amylase; conditions: relative to hydrolysis rate of 3 mM G5CNP defined as 10, substrate 7-9 times the Km
Experimental: as §2, §3, §4, §1

SMILES: [N-]=[N+]=NC[C@H]1O[C@H](O[C@H]2[C@H](O)[C@@H](O)[C@@H](O[C@H]3[C@H](O)[C@@H](O)[C@@H](O[C@H]4[C@H](O)[C@@H](O)[C@@H](O[C@H]5[C@H](O)[C@@H](O)[C@H](Oc6ccc([N+](=O)[O-])cc6Cl)O[C@@H]5CO)O[C@@H]4CO)O[C@@H]3CO)O[C@@H]2CO)[C@H](O)[C@@H](O)[C@@H]1O [ADG5CNP, 2-chloro-4-nitrophenyl 6^5-azido-6^5-deoxy-β-D-maltopentaoside]
- hydrolysis by the coupled enzyme (in words) [1]: not hydrolyzed
- stability in a measuring system (in words) [1]: stable
- Km [2]: 170 µM
- Hydrolysis rate [3]: 10
- Hydrolysis rate [4]: 10

SMILES: C=C1O[C@H](O[C@H]2[C@H](O)[C@@H](O)[C@@H](O[C@H]3[C@H](O)[C@@H](O)[C@@H](O[C@H]4[C@H](O)[C@@H](O)[C@@H](O[C@H]5[C@H](O)[C@@H](O)[C@H](Oc6ccc([N+](=O)[O-])cc6Cl)O[C@@H]5CO)O[C@@H]4CO)O[C@@H]3CO)O[C@@H]2CO)[C@H](O)[C@@H](O)[C@@H]1OS(C)(=O)=O [EMG5CNP, 2-chloro-4-nitrophenyl 5^5-eno-4^5 -O-mesyl-β-D-maltopentaoside]
- hydrolysis by the coupled enzyme (in words) [1]: not hydrolyzed
- stability in a measuring system (in words) [1]: stable
- Km [2]: 130 µM
- Hydrolysis rate [3]: 10
- Hydrolysis rate [4]: 10
